Tests used:
[1] = tested on: plant cells, such as soybean (SB-1), tobacco and Brassica sp.; test: Inhibition of plant cell growth by deoxyadenosine and analogs in culture medium; type: cell-based
[2] = tested on: tobacco (Nicotiana tabacum cv. Xenthi) leaf explants; test: Effect on growth of tobacco leaf explants (fresh weight increase); type: cell-based; conditions: average after 3 weeks in culture
Description: The fresh weight increase was determined after 3 weeks in culture.

[3] = tested on: leaf discs from Normal (non-transformed) plants; test: Culture of leaf discs from non-transformed plants on selective media; type: cell-based, Nicotiana tabacum
Description: (§1) Leaf discs cut from Nicotiana tabacum cv. Xanthi were soaked in a dilution of an overnight culture of Agrobacterium/pDY18 for several seconds, blotted dry and placed on Murashige and Skoog medium containing Gamborg's (MS/B5 medium containing 30 g/l sucrose, 2 mg/l2,4-dichlorophenoxy acetic acid and […] phytoagar). After 2 days of co-cultivation the leaf discs were placed on medium containing ara-A (100 μM) or cordycepin (50 μM) as selective agents and 500 μg/ml carbenicillin to inhibit Agrobacterium growth. The shoots which were regenerated were transferred to rooting medium containing MS basal medium containing Gamborg's vitamins (MS/B5, Sigma), 30 g/l sucrose, 0.1 mg/l a-naphthalene acetic acid (NAA), 500 μg/ml carbenicillin and 100 μg/ml kanamycin and 6 g/l phytoagar, adjusted to pH 5.6. Regenerated plants were transferred to soil and grown at 25° C. in an 18/6 hrs day/night cycle. Two plants designated 18-2 and 18-3 were chosen for further study.
(§2) Leaf discs cut from plant 18-2, 18-3, and Normal (non-transformed) plants were cultured on agar MS agar media containing either no selective agent or ara-A (100 μM) or cordycepin (50 μM).

[4] = tested on: leaf discs from ADA transformed plants 18-2, 18-3; test: Culture of leaf discs from ADA transformed plants on selective media; type: cell-based, Nicotiana tabacum
Description: as §1, §2

[5] = tested on: soybean cells (Glycine max) line SB-1; test: Effect on growth of soybean cells in culture (dry weight increase); type: cell-based; conditions: for Increase In Dry Weight: average after 6 days in culture
Description: Aliquots of cells were subcultured to medium containing either 0, 0.74 μM, 7.4 μM, 74 μM of 2'-deoxyadenosine and cultured for 6 days. The cells were then harvested on filters, oven dried and weighed.

SMILES	growth of plant cells in presence of compound in culture medium [1]	Increase in Fresh Weight ([2]; 40 μM)	Increase in Fresh Weight ([2]; 80 μM) [g]	Increase in Fresh Weight ([2]; 160 μM) [g]	other results
OC[C@H]1O[C@@H](n2cnc3c(Cl)ncnc32)[C@H](O)[C@@H]1O [6-chloropurine riboside]	inhibited				
COc1ncnc2c1ncn2[C@@H]1O[C@H](CO)[C@@H](O)[C@H]1O [6-methoxypurine riboside]	inhibited				
Nc1ncnc2c1ncn2[C@H]1CC[C@@H](CO)O1 [2'-3'-dideoxyadenosine]	inhibited				
Nc1ncnc2c1ncn2[C@@H]1O[C@H](CO)C[C@H]1O [Cordycepin, 3'-deoxyadenosine]	inhibited	0.04 + 0.049 g	0.02 ± 0.001	0.02 ± 0.001	Increase in Fresh Weight ([2]; 5 μM): 0.61 ± 0.059 g; Increase in Fresh Weight ([2]; 10 μM): 0.10 ± 0.016 g; Increase in Fresh Weight ([2]; 20 μM): 0.06 ± 0.008 g; growth of tissues on selective medium ([3]; cordycepin 50 μM): No growth was observed; growth of tissues on selective medium ([4]; transformed plant 18-2, cordycepin 50 μM): proliferated; growth of tissues on selective medium ([4]; transformed plant 18-3, cordycepin (50 μM)): proliferated
Nc1ncnc2c1ncn2[C@@H]1O[C@H](CO)[C@@H](O)[C@H]1O [Adenosine]		0.95 ± 0.069 g	0.81 ± 0.060	0.94 ± 0.056	Increase in Fresh Weight ([2]; 320 μM): 0.57 ± 0.052 g
Nc1nc(N)c2ncn([C@@H]3O[C@H](CO)[C@@H](O)[C@H]3O)c2n1 [2,6-diaminopurine riboside]	inhibited				
Nc1ncnc2c1ncn2[C@@H]1O[C@H](CO)[C@H](O)[C@H]1O [xyl-A, 9-B-D-xylofuranosyl adenine]	inhibited				
Nc1ncnc2c1ncn2[C@@H]1O[C@H](CO)[C@@H](O)[C@@H]1O [Arabinofuranosyl, 9-B-D-arabinofuranosyl adenine]	inhibited	0.10 ± 0.048 g	0.05 ± 0.008	0.02 ± 0.001	Increase in Fresh Weight ([2]; 5 μM): 0.56 ± 0.047 g; Increase in Fresh Weight ([2]; 10 μM): 0.32 ± 0.037 g; Increase in Fresh Weight ([2]; 20 μM): 0.23 ± 0.025 g; growth of tissues on selective medium ([3]; ara-A 100 μM): No growth was observed; growth of tissues on selective medium ([4]; transformed plant 18-2, ara-A 100 μM): proliferated; growth of tissues on selective medium ([4]; transformed plant 18-3, ara-A (100 μM)): proliferated
Nc1nc(Cl)nc2c1ncn2[C@@H]1O[C@H](CO)[C@@H](O)[C@H]1O [2-chloroadenosine]	inhibited				
Nc1ncnc2c1ncn2[C@H]1C[C@H](O)[C@@H](CO)O1 [2'-deoxyadenosine]	inhibited	0.74 ± 0.058 g	0.96 ± 0.050	0.32 ± 0.038	Increase In Dry Weight ([5]; 0.74 μM): 6.05 mg; Increase In Dry Weight ([5]; 7.40 μM): 3.51 mg; Increase In Dry Weight ([5]; 74.00 μM): 1.93 mg; effect on growth of soybean cells ([5]; all three concentrations (0.74, 7.4, 74 μM), 6 days): inhibitory; Increase in Fresh Weight ([2]; 320 μM): 0.07 ± 0.005 g; Increase in Fresh Weight ([2]; 640 μM): 0.04 ± 0.003 g

— patent US5474929A, “Selectable/reporter gene for use during genetic engineering of plants and plant cells” (National Research Council of Canada, priority 1993, dated 1995)
